Laboratory results: ChEMBL document CHEMBL3997821, “Design, synthesis and evaluation of novel pyrazolo-pyrimido[4,5-d]pyrimidine derivatives as potent antibacterial and biofilm inhibitors” (Bioorg Med Chem Lett, 2017)
In brackets after ≈: the same amount, converted by molar mass. Activity calls are given as the source filed them. No cut-off for these calls is given here.

What was measured:
Type in all cases: functional
Staphylococcus aureus [1] = experiment: Antibacterial activity against Staphylococcus aureus MLS16 MTCC 2940 after 24 hrs by well diffusion method; settings: MLS16 MTCC 2940, 24 h
Bacillus subtilis [2] = experiment: Ratio of MBC to MIC for Bacillus subtilis MTCC 121
Micrococcus luteus [3] = experiment: Bactericidal activity against Micrococcus luteus MTCC 2470 after 24 hrs by serial dilution method; settings: MTCC 2470, 24 h
Raoultella planticola = experiment: Antibacterial activity against Klebsiella planticola MTCC 530 after 24 hrs by well diffusion method; settings: MTCC 530, 24 h
Staphylococcus aureus [4] = experiment: Ratio of MBC to MIC for Staphylococcus aureus MLS16 MTCC 2940
Micrococcus luteus [5] = experiment: Antibacterial activity against Micrococcus luteus MTCC 2470 after 24 hrs by well diffusion method; settings: MTCC 2470, 24 h
Staphylococcus aureus [6] = experiment: Antibacterial activity against Staphylococcus aureus MTCC 96 after 24 hrs by well diffusion method; settings: MTCC 96, 24 h
Staphylococcus aureus [7] = experiment: Bactericidal activity against Staphylococcus aureus MTCC 96 after 24 hrs by serial dilution method; settings: MTCC 96, 24 h
Staphylococcus aureus [8] = experiment: Bactericidal activity against Staphylococcus aureus MLS16 MTCC 2940 after 24 hrs by serial dilution method; settings: MLS16 MTCC 2940, 24 h
Pseudomonas aeruginosa = experiment: Antibacterial activity against Pseudomonas aeruginosa MTCC 2453 after 24 hrs by well diffusion method; settings: MTCC 2453, 24 h
Escherichia coli = experiment: Antibacterial activity against Escherichia coli MTCC 739 after 24 hrs by well diffusion method; settings: MTCC 739, 24 h
Bacillus subtilis [9] = experiment: Antibacterial activity against Bacillus subtilis MTCC 121 after 24 hrs by well diffusion method; settings: MTCC 121, 24 h
Bacillus subtilis [10] = experiment: Bactericidal activity against Bacillus subtilis MTCC 121 after 24 hrs by serial dilution method; settings: MTCC 121, 24 h
Staphylococcus aureus [11] = experiment: Antibiofilm activity against Staphylococcus aureus MLS16 MTCC 2940 after 24 hrs by crystal violet staining based assay; settings: MLS16 MTCC 2940, 24 h
Micrococcus luteus [12] = experiment: Induction of ROS generation in Micrococcus luteus MTCC 2470 mature biofilms at up to 4 ug/ml after 24 hrs by DCFH-DA staining based fluorometric assay

Structure (SMILES)	MIC (Staphylococcus aureus [1])	MIC (Micrococcus luteus [5])	MIC (Staphylococcus aureus [6])	MIC (Pseudomonas aeruginosa)	MIC (Escherichia coli)	MIC (Bacillus subtilis [9])	Ratio (Bacillus subtilis [2])	MBC (Micrococcus luteus [3])	MIC (Raoultella planticola)	Ratio (Staphylococcus aureus [4])	MBC (Staphylococcus aureus [7])	MBC (Staphylococcus aureus [8])	MBC (Bacillus subtilis [10])	IC50 (Staphylococcus aureus [11])	Activity (Micrococcus luteus [12])
Cn1c2c(c(=O)n(C)c1=O)C(c1cn(-c3ccccc3)nc1-c1ccc([N+](=O)[O-])cc1)N(c1cccc([N+](=O)[O-])c1)C=N2 (stereo not drawn)	> 125 µg/mL	31.2 µg/mL (≈ 53.9 µM)	> 125 µg/mL	> 125 µg/mL	> 125 µg/mL	> 125 µg/mL		62.5 µg/mL (≈ 108 µM)	> 125 µg/mL		> 125 µg/mL	> 125 µg/mL	> 125 µg/mL		
COc1ccc(N2C=Nc3c(c(=O)n(C)c(=O)n3C)C2c2cn(-c3ccccc3)nc2-c2ccc(C)cc2)cc1 (stereo not drawn)	> 125 µg/mL	> 125 µg/mL	> 125 µg/mL	> 125 µg/mL	> 125 µg/mL	> 125 µg/mL		15.6 µg/mL (≈ 29.3 µM)	> 125 µg/mL		62.5 µg/mL (≈ 117 µM)	31.2 µg/mL (≈ 58.6 µM)	62.5 µg/mL (≈ 117 µM)		
Cn1c2c(c(=O)n(C)c1=O)C(c1cn(-c3ccccc3)nc1-c1cccs1)N(c1cccc([N+](=O)[O-])c1)C=N2 (stereo not drawn)	> 125 µg/mL	> 125 µg/mL	> 125 µg/mL	> 125 µg/mL	> 125 µg/mL	> 125 µg/mL			> 125 µg/mL						
O=C(O)c1cn(C2CC2)c2cc(N3CCNCC3)c(F)cc2c1=O [CIPROFLOXACIN]	0.9 µg/mL (≈ 2.72 µM)	0.9 µg/mL (≈ 2.72 µM)	0.9 µg/mL (≈ 2.72 µM)	0.9 µg/mL (≈ 2.72 µM)	0.9 µg/mL (≈ 2.72 µM)	0.9 µg/mL (≈ 2.72 µM)		1.9 µg/mL (≈ 5.73 µM)	0.9 µg/mL (≈ 2.72 µM)		1.9 µg/mL (≈ 5.73 µM)	0.9 µg/mL (≈ 2.72 µM)	0.9 µg/mL (≈ 2.72 µM)	0.4 µg/mL (≈ 1.21 µM)	Active
Cc1ccc(-c2nn(-c3ccccc3)cc2C2c3c(n(C)c(=O)n(C)c3=O)N=CN2c2cccc([N+](=O)[O-])c2)cc1 (stereo not drawn)	> 125 µg/mL	> 125 µg/mL	> 125 µg/mL	> 125 µg/mL	> 125 µg/mL	> 125 µg/mL			> 125 µg/mL						
Cn1c2c(c(=O)n(C)c1=O)C(c1cn(-c3ccccc3)nc1-c1ccc(Cl)cc1)N(c1ccc(Cl)cc1)C=N2 (stereo not drawn)	> 125 µg/mL	> 125 µg/mL	> 125 µg/mL	> 125 µg/mL	> 125 µg/mL	> 125 µg/mL			> 125 µg/mL						
Cc1ccc(-c2nn(-c3ccccc3)cc2C2c3c(n(C)c(=O)n(C)c3=O)N=CN2c2ccccc2)cc1 (stereo not drawn)	> 125 µg/mL	> 125 µg/mL	> 125 µg/mL	> 125 µg/mL	> 125 µg/mL	> 125 µg/mL			> 125 µg/mL						

The next lines start with results.

MIC (Staphylococcus aureus [1])	MIC (Micrococcus luteus [5])	MIC (Staphylococcus aureus [6])	MIC (Pseudomonas aeruginosa)	MIC (Escherichia coli)	MIC (Bacillus subtilis [9])	Structure (SMILES)	Ratio (Bacillus subtilis [2])	MBC (Micrococcus luteus [3])	MIC (Raoultella planticola)	Ratio (Staphylococcus aureus [4])	MBC (Staphylococcus aureus [7])	MBC (Staphylococcus aureus [8])	MBC (Bacillus subtilis [10])	IC50 (Staphylococcus aureus [11])	Activity (Micrococcus luteus [12])
15.6 µg/mL (≈ 28.2 µM)	7.8 µg/mL (≈ 14.1 µM)	15.6 µg/mL (≈ 28.2 µM)	> 125 µg/mL	> 125 µg/mL	31.2 µg/mL (≈ 56.4 µM)	COc1ccc(N2C=Nc3c(c(=O)n(C)c(=O)n3C)C2c2cn(-c3ccccc3)nc2-c2ccc(Cl)cc2)cc1 (stereo not drawn)	2	15.6 µg/mL (≈ 28.2 µM)	> 125 µg/mL	2	31.2 µg/mL (≈ 56.4 µM)	15.6 µg/mL (≈ 28.2 µM)	31.2 µg/mL (≈ 56.4 µM)		
> 125 µg/mL	> 125 µg/mL	> 125 µg/mL	> 125 µg/mL	> 125 µg/mL	> 125 µg/mL	COc1ccc(N2C=Nc3c(c(=O)n(C)c(=O)n3C)C2c2cn(-c3ccccc3)nc2-c2ccccc2)cc1 (stereo not drawn)			> 125 µg/mL						
> 125 µg/mL	> 125 µg/mL	> 125 µg/mL	> 125 µg/mL	> 125 µg/mL	> 125 µg/mL	Cn1c2c(c(=O)n(C)c1=O)C(c1cn(-c3ccccc3)nc1-c1ccc(Cl)cc1)N(c1ccccc1)C=N2 (stereo not drawn)			> 125 µg/mL						
15.6 µg/mL (≈ 30.7 µM)	15.6 µg/mL (≈ 30.7 µM)	15.6 µg/mL (≈ 30.7 µM)	> 125 µg/mL	> 125 µg/mL	31.2 µg/mL (≈ 61.3 µM)	Cc1ccc(N2C=Nc3c(c(=O)n(C)c(=O)n3C)C2c2cn(-c3ccccc3)nc2-c2cccs2)cc1 (stereo not drawn)		31.2 µg/mL (≈ 61.3 µM)	> 125 µg/mL		31.2 µg/mL (≈ 61.3 µM)	31.2 µg/mL (≈ 61.3 µM)	31.2 µg/mL (≈ 61.3 µM)		
15.6 µg/mL (≈ 31.5 µM)	15.6 µg/mL (≈ 31.5 µM)	31.2 µg/mL (≈ 63.1 µM)	> 125 µg/mL	> 125 µg/mL	31.2 µg/mL (≈ 63.1 µM)	Cn1c2c(c(=O)n(C)c1=O)C(c1cn(-c3ccccc3)nc1-c1cccs1)N(c1ccccc1)C=N2 (stereo not drawn)			> 125 µg/mL						
